{"source": "patent US20070293485A1", "about": "“DRUG ADMINISTRATION METHODS” (priority 2006, published 2007)", "key": {"[1]": {"tested_on": "patients with advanced solid tumors or lymphomas", "assay": "Phase I study, one or two hour intravenous infusion daily for five consecutive days on a three week cycle: adverse events, DLT, MTD", "assay_type": "in vivo", "protocol": "Dosing is by one or two hour intravenous infusion daily for five consecutive days repeated on a three week cycle. […] Response by RECIST is determined after every 2 cycles."}, "[2]": {"tested_on": "advanced solid tumors or lymphomas", "assay": "Phase I study, one or two hour infusion: response by RECIST, disease stabilization", "assay_type": "in vivo, human", "protocol": "(§1) Eligible patients with advanced solid tumors or lymphomas whose tumors had progressed on, or for whom there are no standard therapies, receive Compound A in successive dose cohorts at: 10, 20, 40, 80 and 160 mg/m^2. Dosing is by one or two hour intravenous infusion daily for five consecutive days repeated on a three week cycle. […] Response by RECIST is determined after every 2 cycles."}, "[3]": {"assay": "Phase I study, one or two hour infusion: plasma pharmacokinetics", "assay_type": "in vivo, human", "protocol": "The objectives of the study described hereafter are to determine the maximum tolerated dose (MTD) and dose limiting toxicities (DLTs), to establish the pharmacokinetics (PKs), and to determine the recommended dose for further clinical development of Compound A.\nas §1"}, "[4]": {"tested_on": "patients with advanced solid tumors", "assay": "Phase I study, daily intravenous infusion (one to six hours) on first five days of a three week cycle: adverse events, DLT, MTD", "assay_type": "in vivo", "text": "Compound A is designed to inhibit over-expressed ribosomal RNA synthesis in cancer cells by disrupting an essential protein-rDNA quadruplex complex thereby inducing selective apoptosis. A Phase I clinical trial for Compound A has been undertaken to determine the dose limiting toxicities (DLTs), maximum tolerated dose (MTD) and pharmacokinetics (PK) of this agent with administration by infusion for about six hours per day.\n(§2) Eligible patients with advanced solid tumors received Compound A in successive dose cohorts at: 10, 20, 40, 80, 160, 240, 360 and 480 mg/m^2. Drug is administered by daily intravenous infusion on the first five consecutive days of a three week cycle and the infusion duration has varied from one hour to six hours. Response by RECIST is determined after every 2 cycles."}, "advanced solid tumors": {"tested_on": "advanced solid tumors", "assay": "Phase I study, infusion up to six hours: response by RECIST, disease stabilization", "assay_type": "in vivo, human", "protocol": "as §2"}, "[5]": {"assay": "Phase I study: pharmacokinetics in plasma, whole blood and urine of patients", "assay_type": "in vivo, human", "text": "Analysis has determined that Compound A whole blood concentration is nearly ten times that of plasma concentration. The reversible binding and subsequent slow release of Compound A from blood cells provides a “reservoir” effect to extend the Compound A plasma terminal half life. Further details of these observations are described in an Example that follows. This pharmacokinetic property allows consideration of a less frequent dosing schedule, and a phase I study of weekly intravenous Compound A administration is being implemented.\nPharmacokinetic analyses of plasma samples collected on Day 1 and Day 5 of dosing for every patient were performed in cohort batches during the conduct of the phase I study of Compound A in refractory solid tumors and lymphomas (Protocol C3-05-001). […] Saturation of elimination was an unlikely cause of the extended half life because there was no apparent accumulation of drug in plasma.\nThe pharmacokinetic sampling procedure in the phase I clinical trial was amended to allow for whole blood and plasma to be collected from study patients. When these samples were analyzed, the binding of Compound A to blood cells was again evident."}, "human blood cells [6]": {"tested_on": "human blood cells", "assay": "Human whole blood spiked with Compound A in vitro: binding to blood cells", "assay_type": "in vitro ADME", "protocol": "(§3) To test if this binding also occurs with human blood cells, an in vitro experiment was conducted with human whole blood spiked with Compound A concentrations of 1, 5, 10, and 50 μM. […] Results of the analysis of whole blood and plasma are illustrated in FIG. 7. The permanence of the binding was studied by attempting to “wash off” bound drug with fresh plasma. […] This reversible binding to blood cells is the reason for the observed extended plasma terminal half life. The ability of fresh plasma to wash off Compound A from blood cells after one, two and four washes is illustrated in FIGS. 8, 9, and 10, respectively."}, "human blood cells [7]": {"tested_on": "human blood cells", "assay": "Wash off of bound drug from blood cells with fresh plasma", "assay_type": "in vitro ADME", "conditions": "one, two and four washes", "protocol": "as §3"}, "xenograft tumor": {"tested_on": "xenograft tumor", "assay": "Xenograft tumor growth models (preclinical)", "assay_type": "in vivo"}, "malignant cells": {"tested_on": "malignant cells", "assay": "Apoptosis in malignant cells in vitro", "assay_type": "cell-based"}, "Drug resistance in vitro": {"assay": "Drug resistance in vitro", "assay_type": "cell-based"}, "[8]": {"tested_on": "protein-rDNA quadruplex interaction", "assay": "Inhibition of rRNA biogenesis in cancer cells", "assay_type": "cell-based"}}, "note": "Entries after “also recorded” stand apart in the source; their conditions may differ.", "data": [{"compound": "CN1CCCC1CCNC(=O)c1cn2c3c(c(N4CCC(c5cnccn5)C4)c(F)cc3c1=O)Oc1cc3ccccc3cc1-2", "note": "(stereo not drawn) [Compound A]", "values": [{"measurement": "tolerability of doses", "setting": "[1]; 10, 20, 40, 80 and 160 mg/m^2, one or two hour iv infusion daily x5, three week cycle, 21 patients", "value": "well tolerated"}, {"measurement": "drug-related serious adverse events", "setting": "[1]; 10-160 mg/m^2", "value": "No drug-related serious adverse events"}, {"measurement": "grade 3 adverse events deemed related to Compound A", "setting": "[1]; 10-160 mg/m^2, 21 patients", "value": "none"}, {"measurement": "grade 3 adverse events reported during the study", "setting": "[1]; 10-160 mg/m^2, 21 patients", "value": "nine"}, {"measurement": "severity of adverse events deemed at least possibly related to drug", "setting": "[1]; all studied dose levels 10-160 mg/m^2", "value": "grade 1 or 2"}, {"measurement": "maximum tolerated dose (MTD)", "setting": "[1]; highest dose 160 mg/m^2, one or two hour infusion", "value": "not yet been defined"}, {"measurement": "cough during infusion", "setting": "[1]; one-hour infusion, 160 mg/m^2, resolved spontaneously upon completion of infusion", "value": "transient grade 1 cough"}, {"measurement": "cough after extending the infusion duration", "setting": "[1]; two hour infusion, 160 mg/m^2", "value": "the cough resolved"}, {"measurement": "dose limiting toxicities", "setting": "[1]; up to 160 mg/m^2", "value": "no observations to date of dose limiting toxicities"}, {"measurement": "longest period of stable disease to date", "setting": "[2]; 10-160 mg/m^2", "value": 24, "unit": "weeks"}, {"measurement": "patients with disease stabilization of longer than / at least four months", "setting": "[2]; 10-160 mg/m^2, 21 patients", "value": "three"}, {"measurement": "patients with stable disease (SD) at evaluation following two cycles", "setting": "[2]; 10-160 mg/m^2, 21 patients", "value": "Six"}, {"measurement": "objective tumor responses", "setting": "[2]; 10-160 mg/m^2, 21 patients, RECIST after every 2 cycles", "value": "No objective tumor responses"}, {"measurement": "median duration of disease stabilization", "setting": "[2]; six patients with stable disease", "value": 14, "unit": "weeks"}, {"measurement": "linearity of PK parameters (AUC) with dose level", "setting": "[3]; day 1 of dosing, dose cohorts 10-160 mg/m^2", "value": "linearity; also recorded: linear pharmacokinetic behavior"}, {"measurement": "half-life", "setting": "[3]; human, plasma, intravenous, following the first dose (day 1), across all dose levels 10-160 mg/m^2, read-out: plasma terminal half life (converted)", "value": "~10", "unit": "h"}, {"measurement": "maximum plasma concentration (Cmax), effect of extending infusion", "setting": "[3]; infusion extended to 2 hours at 160 mg/m^2", "value": "decreased"}, {"measurement": "MTD", "setting": "[4]; daily iv infusion x5 days, three week cycle, infusion up to six hours", "value": 360, "unit": "mg/m^2"}, {"measurement": "tolerability", "setting": "[4]; in vivo", "value": "well tolerated"}, {"measurement": "duration of stable disease", "setting": "advanced solid tumors; 10 mg/m^2, one patient with prostate cancer", "value": "six"}, {"measurement": "duration of stable disease", "setting": "advanced solid tumors; 160 mg/m^2 (internal dose escalation from 80 mg/m2), one patient with anorectal cancer", "value": "twelve"}, {"measurement": "duration of stable disease", "setting": "advanced solid tumors; 160 mg/m^2, one patient with liposarcoma", "value": "six"}, {"measurement": "cycles completed, patient remains on-study", "setting": "advanced solid tumors; 240 mg/m^2 (internal dose escalation from 40 mg/m^2), one patient with neuroendocrine islet cell cancer of the pancreas", "value": 26, "unit": "cycles"}, {"measurement": "patients with stable disease for longer than four months", "setting": "advanced solid tumors; 42 patients, 10-480 mg/m^2", "value": "Four"}, {"measurement": "patients with disease stabilization for longer than one year", "setting": "advanced solid tumors; 42 patients, continuing on study", "value": "one"}, {"measurement": "urinary clearance rate", "setting": "[5]; calculated from a 12-hour quantitative urine collection", "value": "10 % of the glomerular filtration rate"}, {"measurement": "plasma terminal half life, trend", "setting": "[5]; patients, Day 5 vs Day 1 and dose escalation", "value": "increase with repeated dosing and with each dose level escalation"}, {"measurement": "saturability of blood cell binding", "setting": "[5]; patients, comparing Day 1 and Day 5", "value": "did not appear to be saturable"}, {"measurement": "whole blood concentration relative to plasma concentration", "setting": "[5]; patients, on Day 1 and on Day 5", "value": "approximately ten"}, {"measurement": "accumulation in plasma concentration", "setting": "[5]; patients, repeated dosing", "value": "without significant accumulation"}, {"measurement": "binding to blood cells", "setting": "[5]; patients, whole blood and plasma specimens", "value": "bind reversibly to blood cells"}, {"measurement": "route of elimination", "setting": "[5]; urine", "value": "eliminated unchanged in urine"}, {"measurement": "saturability of binding to human blood cells", "setting": "human blood cells [6]; even at 50 μM", "value": "not saturable"}, {"measurement": "binding to human blood cells", "setting": "human blood cells [6]; human whole blood spiked with 1, 5, 10, and 50 μM", "value": "concentration dependent binding"}, {"measurement": "permanence of binding to blood cells", "setting": "human blood cells [7]", "value": "easily reversible"}, {"measurement": "suppression of xenograft tumor growth", "setting": "xenograft tumor", "value": "potency in suppressing xenograft tumor growth with a broad therapeutic window"}, {"measurement": "induction of apoptosis", "setting": "malignant cells", "value": "rapidly induces selective apoptosis"}, {"measurement": "drug resistance", "setting": "Drug resistance in vitro", "value": "no drug resistance has been observed"}, {"measurement": "effect on rRNA biogenesis", "setting": "[8]", "value": "directly inhibits aberrant rRNA biogenesis"}]}]}
